Experimental data taken from article PMC8428848, “Ancient role of sulfakinin/cholecystokinin-type signalling in inhibitory regulation of feeding processes revealed in an echinoderm” (eLife, 2021).
Read-outs that look alike come from different tables or passages of the source. Each block holds one molecule with its values, some of them ahead of it. Square brackets hold non-standard residues; d marks the D form. Ends that are not written are not given here. * marks the point of attachment. pGlu = O=C1CC[C@@H](C(=O)O)N1; SO3H = O=S(=O)(O)*

Legend:
[1] = test system: affinity-purified rabbit antibodies to ArSK/CCK1; experiment: ELISA specificity test of affinity-purified antibodies to ArSK/CCK1; assay type: binding; details: TEA fraction diluted 1:10; peptide 0.1 nmol (100 µl of 1 µM); mean of six replicates
Description: To generate antibodies to ArSK/CCK1, an N-terminally truncated peptide analog of ArSK/CCK1 with the addition of a reactive N-terminal lysine residue was synthesized (KY(SO3H)GHGLFW-NH2 , Peptide Protein Research Ltd, Fareham, UK). To generate antibodies to ArSK/CCKR, a peptide corresponding to the C-terminal 15 amino acids of ArSK/CCK-R with addition of an N-terminal reactive lysine residue was synthesized (KPSPTNYTNVSSDSSV, Peptide Protein Research Ltd, Fareham, UK). These peptides were conjugated to porcine thyroglobulin (Sigma-Aldrich, Gillingham, UK) as a carrier protein using 5% glutaraldehyde (Sigma-Aldrich, Gillingham, UK) in phosphate buffer (0.1 M; pH 7.2) and the conjugate was used for immunisation of a rabbit for ArSK/CCK1 (70-day protocol; Charles River Biologics, Romans, France) and a guinea pig for ArSK/CCKR (56-day protocol; Charles River Biologics, Romans, France). The antigens were emulsified in Freund’s complete adjuvant for primary immunisations (~100 nmol antigen peptide) and in Freund’s incomplete adjuvant for three booster immunisations (~50 nmol antigen peptide). The presence of antibodies to the antigen peptides in post-immunisation serum samples was assessed using an enzyme-linked immunosorbent assay (ELISA), in comparison with pre-immune serum (Figure 5—figure supplement 1a; Figure 6—figure supplement 1). Antibodies to the antigen peptides were purified from the final bleed antiserum by affinity purification using the AminoLink Plus Immobilization Kit (Thermo Fisher Scientific, Waltham, MA), with bound antibodies eluted using glycine elution buffer (6.3 ml of 100 mM glycine [VWR Chemicals, Leicestershire, UK] and 0.7 ml of Tris [1 M, pH = 7.0]) and […] (TEA) elution buffer (6.3 ml of TEA [Sigma-Aldrich, Gillingham, UK] and 0.7 ml of Tris [1 M, pH = 7.0]). Eluates were dialyzed and sodium azide (0.1%) was added for long-term storage of the affinity-purified antibodies at 4°C. The specificity of ArSK/CCK1 antibodies eluted with TEA, which were subsequently used for immunohistochemistry (see below), was assessed by ELISA by testing them at a concentration of 1:10 with the following synthetic peptides (100 µl at a concentration of 1 µM dissolved in carbonate/bicarbonate buffer [25 mM sodium carbonate, 25 mM sodium bicarbonate, pH = 9.8]): ArSK/CCK1, ArSK/CCK2, ArSK/CCK2(ns) and the A. rubens luqin-type peptide ArLQ (Figure 5—figure supplement 1b). The rabbit antiserum to ArSK/CCK1 has been assigned the RRID:AB_2877176 and the guinea pig antiserum to ArSK/CCKR has been assigned the RRID:AB_2891354.

[2] = target: T1, ArSK/CCKR (Asterias rubens, UniProt A0A8F2ZGB9); experiment: Aequorin bioluminescence receptor assay in CHO-K1 cells (G5A) co-transfected with ArSK/CCKR and human Gα16; assay type: cell-based; details: 10^–12 to 10^–4 M; at least three independent experiments in triplicate
T1 sequence (A0A8F2ZGB9 1-434): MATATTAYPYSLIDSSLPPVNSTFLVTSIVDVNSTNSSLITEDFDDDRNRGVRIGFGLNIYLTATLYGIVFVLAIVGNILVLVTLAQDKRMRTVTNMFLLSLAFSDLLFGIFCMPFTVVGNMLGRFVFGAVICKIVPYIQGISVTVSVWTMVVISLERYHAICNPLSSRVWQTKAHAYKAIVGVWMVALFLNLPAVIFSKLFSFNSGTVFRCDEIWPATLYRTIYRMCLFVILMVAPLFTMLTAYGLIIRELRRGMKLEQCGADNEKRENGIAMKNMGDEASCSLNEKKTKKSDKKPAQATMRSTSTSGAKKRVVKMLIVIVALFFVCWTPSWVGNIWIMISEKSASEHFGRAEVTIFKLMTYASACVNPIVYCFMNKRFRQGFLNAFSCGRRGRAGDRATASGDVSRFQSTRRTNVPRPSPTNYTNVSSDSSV
Description: To enable testing of ArSK/CCK1 and ArSK/CCK2 as candidate ligands for ArSK/CCKR, a full-length cDNA encoding ArSK/CCKR was synthesized by GenScript (Piscataway, NJ) and cloned into pcDNA 3.1+ vector (Invitrogen, Thermo Fisher Scientific, Waltham, MA). A partial Kozak translation initiation sequence (CACC) was introduced upstream to the start codon (ATG). CHO-K1 cells stably expressing the mitochondrial targeted calcium-sensitive bioluminescent reporter GFP-aequorin fusion protein (G5A) ([Baubet et al., 2000]) were used as a heterologous expression system for ArSK/CCKR. These cells have been used previously for neuropeptide receptor deorphanisation ([Bauknecht and Jékely, 2015]) and were generously supplied to us by Dr Gáspár Jékely (University of Exeter). The cell line was generated using the CHO-K1 cell line from Sigma-Aldrich (85051005; RRID: CVCL_0214), which is certified by the European Collection of Authenticated Cell Cultures (ECACC), and expression of the GFP-aequorin fusion protein (G5A) in the cell line was determined by functionality in displaying calcium-activated luminescence. […] Cells were cultured, co-transfected with the pcDNA 3.1+ vector containing the ArSK/CCKR cDNA sequence and plasmids encoding the promiscuous human G-protein Gα16. Then bioluminescence-based receptor assays were performed, as described previously for A. rubens luqin-type receptors ([Yañez-Guerra et al., 2018]).
[…] Concentration-response data were determined as a percentage of the highest response for each peptide (100% activation). EC50 values were calculated from concentration-response curves based on four to six independent transfections and averaging two to three replicates in each transfection using Prism 6.0 (RRID:SCR_002798; GraphPad software, La Jolla, CA). Cells transfected with an empty vector were used for control experiments.

[3] = test system: Asterias rubens; details: injected in vivo; ref Tinoco et al., 2018; cited from earlier work
Description: The in vivo effect of SK/CCK-type neuropeptides in triggering cardiac stomach retraction is indicative of a role in physiological mechanisms that control termination of feeding behaviour in starfish. […] Accordingly, here we observed that starfish injected with SK/CCK-type neuropeptides took longer to enclose prey compared to control animals injected with water. Further ...

[4] = test system: Asterias rubens; details: cited from earlier work
Description: (§1) Extra-oral feeding in starfish requires relaxation of muscle in the wall of the cardiac stomach and in intrinsic and extrinsic retractor strands to enable stomach eversion. Then when external digestion and ingestion of prey tissue is completed, contraction of the musculature enables cardiac stomach retraction ([Anderson, 1954]). Previous studies have identified neuropep ...

[5] = test system: cardiac stomach preparations; details: cited from earlier work
Description: as §1

[6] = target: Asterias rubens SK/CCK-type receptor (ArSK/CCKR) (Asterias rubens)

Molecule: EEKTRFPKFMRW-NH2 [ArLQ, A. rubens luqin-type neuropeptide …-NH2, reference compound]
ELISA reactivity (optical density) with antibodies to ArSK/CCK1 [1]: do not cross-react

Molecule: GGGVPHVFQSGGIF-NH2 [ArTK2, A. rubens tachykinin-like peptide ([…]-NH2), reference compound]
activation of ArSK/CCKR (luminescence) [2]: inactive

Molecule: NGFFYamide
onset of feeding on prey (mussels) [3]: significant delay in the onset of feeding | effect on everted cardiac stomach when injected in vivo ([4]; ref Semmens et al., 2013): retraction of the everted stomach | effect on cardiac stomach in vitro ([5]; ref Semmens et al., 2013): triggers contraction

Molecule: SGPYSFNSGLTF-NH2 [S2, SALMFamide neuropeptide S2 (…-NH2)]
effect on cardiac stomach when injected in vivo ([4]; ref Melarange et al., 1999): trigger cardiac stomach eversion | effect on cardiac stomach in vitro ([5]; ref Melarange et al., 1999): cause relaxation | activation of ArSK/CCKR (luminescence) [2]: inactive

Molecule: asterotocin
effect on cardiac stomach when injected in vivo ([4]; ref Odekunle et al., 2019): trigger cardiac stomach eversion | effect on cardiac stomach in vitro ([5]; ref Odekunle et al., 2019): cause relaxation

EC50 of concentration-dependent luminescence (calcium, GFP-aequorin G5A) in CHO-K1 cells transfected with ArSK/CCKR and human Gα16 [6]: 0.12 nM
B1: ArSK/CCK2 (Asterias rubens sulfakinin/cholecystokinin-type neuropeptide 2), GGDDQY(SO3H)GFGLFF-NH2 (peptide)
peptide: GGDDQY(SO3H)GFGLFF-NH2
modifications: N-terminus assumed
SMILES: CC(C)C[C@H](NC(=O)CNC(=O)[C@H](Cc1ccccc1)NC(=O)CNC(=O)[C@H](Cc1ccc(OS(=O)(=O)O)cc1)NC(=O)[C@H](CCC(N)=O)NC(=O)[C@H](CC(=O)O)NC(=O)[C@H](CC(=O)O)NC(=O)CNC(=O)CN)C(=O)N[C@@H](Cc1ccccc1)C(=O)N[C@@H](Cc1ccccc1)C(N)=O

EC50 of concentration-dependent luminescence (calcium, GFP-aequorin G5A) in CHO-K1 cells transfected with ArSK/CCKR and human Gα16 [6]: 0.25 nM
B2: ArSK/CCK1 (Asterias rubens sulfakinin/cholecystokinin-type neuropeptide 1), pQSKVDDY(SO3H)GHGLFW-NH2 (peptide)
peptide: [pGlu]SKVDDY(SO3H)GHGLFW-NH2
SMILES: CC(C)C[C@H](NC(=O)CNC(=O)[C@H](Cc1c[nH]cn1)NC(=O)CNC(=O)[C@H](Cc1ccc(OS(=O)(=O)O)cc1)NC(=O)[C@H](CC(=O)O)NC(=O)[C@H](CC(=O)O)NC(=O)[C@@H](NC(=O)[C@H](CCCCN)NC(=O)[C@H](CO)NC(=O)[C@@H]1CCC(=O)N1)C(C)C)C(=O)N[C@@H](Cc1ccccc1)C(=O)N[C@@H](Cc1c[nH]c2ccccc12)C(N)=O

EC50 of concentration-dependent luminescence (calcium, GFP-aequorin G5A) in CHO-K1 cells transfected with ArSK/CCKR and human Gα16 [6]: 48000 nM
Molecule: GGDDQYGFGLFF-NH2 [ArSK/CCK2(ns), non-sulphated form of ArSK/CCK2, …-NH2]
